Assays:
[1] = target: T1, Eukaryotic translation initiation factor 2-alpha kinase 3 (Homo sapiens) (UniProt Q9NZJ5); test: Selectivity interaction (Kinase panel (KiNativ target engagement assay in Jurkat cells)) EUB0001635a EIF2AK3; type: cell-based; settings: Selectivity number of off-targets 0.0, Selectivity number of targets 233.0, Source Knowledge https://www.sciencedirect.com/science/article/pii/S2451945619300674?via%3Dihub, at 1 µM
T1 sequence (whole entry): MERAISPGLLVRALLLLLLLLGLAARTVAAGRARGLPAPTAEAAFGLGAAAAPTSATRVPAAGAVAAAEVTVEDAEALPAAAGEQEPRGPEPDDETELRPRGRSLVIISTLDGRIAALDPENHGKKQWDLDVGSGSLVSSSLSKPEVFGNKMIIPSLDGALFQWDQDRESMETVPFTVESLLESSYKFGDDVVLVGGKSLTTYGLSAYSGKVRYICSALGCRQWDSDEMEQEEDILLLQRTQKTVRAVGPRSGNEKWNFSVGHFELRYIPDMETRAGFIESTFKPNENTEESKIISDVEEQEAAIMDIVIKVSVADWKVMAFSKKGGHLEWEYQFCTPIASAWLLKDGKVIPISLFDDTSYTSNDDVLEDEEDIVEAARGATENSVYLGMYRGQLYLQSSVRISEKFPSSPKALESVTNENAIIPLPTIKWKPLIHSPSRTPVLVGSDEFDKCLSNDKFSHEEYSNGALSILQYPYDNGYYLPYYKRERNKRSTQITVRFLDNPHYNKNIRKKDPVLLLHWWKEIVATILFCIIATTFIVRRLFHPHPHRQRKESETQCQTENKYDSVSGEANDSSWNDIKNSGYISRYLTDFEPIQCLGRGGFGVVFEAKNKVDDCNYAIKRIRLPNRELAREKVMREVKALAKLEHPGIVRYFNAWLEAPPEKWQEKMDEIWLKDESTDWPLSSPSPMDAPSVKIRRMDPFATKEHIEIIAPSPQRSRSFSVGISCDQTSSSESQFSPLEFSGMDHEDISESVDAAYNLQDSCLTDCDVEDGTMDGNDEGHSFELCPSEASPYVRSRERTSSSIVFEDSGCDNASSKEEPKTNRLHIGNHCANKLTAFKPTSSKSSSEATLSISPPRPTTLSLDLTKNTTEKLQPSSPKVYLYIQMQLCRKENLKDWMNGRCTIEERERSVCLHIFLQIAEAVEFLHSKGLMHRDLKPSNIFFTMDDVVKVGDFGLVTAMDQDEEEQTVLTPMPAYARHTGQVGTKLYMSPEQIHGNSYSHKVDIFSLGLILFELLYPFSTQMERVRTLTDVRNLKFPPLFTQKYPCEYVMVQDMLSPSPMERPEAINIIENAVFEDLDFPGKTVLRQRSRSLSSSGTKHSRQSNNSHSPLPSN

[2] = target: Serine/threonine-protein kinase MARK1 (Homo sapiens) (UniProt Q9P0L2); test: Selectivity interaction (KinomeScan (DiscoverX)) EUB0000695a MARK1; settings: at 100 nM
[3] = target: Activin receptor type-2A (Homo sapiens) (UniProt P27037); test: Selectivity interaction (KinomeScan (DiscoverX)) EUB0001049a ACVR2A; settings: at 1 µM
[4] = target: Protein kinase C beta type (Homo sapiens, UniProt P05771); test: Selectivity interaction (ActivX KiNativ screen (ex vivo kinase selectivity in human PBMCs)) EUB0001619a PRKCB; type: cell-based; settings: PBMC, at 1 µM
[5] = target: Rho-associated protein kinase 2 (Homo sapiens, UniProt O75116); test: Selectivity interaction (Enzymatic assay) EUB0001199aCl ROCK2
[6] = target: NT-3 growth factor receptor (Homo sapiens, UniProt Q16288); test: Selectivity interaction (KinomeScan (DiscoverX)) EUB0000607a NTRK3; settings: at 10 µM
[7] = target: Tyrosine-protein kinase Lck (Homo sapiens, UniProt P06239); test: Selectivity interaction (KinomeScan (DiscoverX)) EUB0000699a LCK; settings: at 10 µM
[8] = target: STE20/SPS1-related proline-alanine-rich protein kinase (Homo sapiens) (UniProt Q9UEW8); test: Selectivity interaction (KinomeScan (DiscoverX)) EUB0000092b STK39; settings: at 10 µM
[9] = target: T2, Mitogen-activated protein kinase kinase kinase 12 (Homo sapiens) (UniProt Q12852); test: Selectivity interaction (KinomeScan (DiscoverX)) EUB0000092b MAP3K12; settings: at 10 µM
T2 sequence (whole entry): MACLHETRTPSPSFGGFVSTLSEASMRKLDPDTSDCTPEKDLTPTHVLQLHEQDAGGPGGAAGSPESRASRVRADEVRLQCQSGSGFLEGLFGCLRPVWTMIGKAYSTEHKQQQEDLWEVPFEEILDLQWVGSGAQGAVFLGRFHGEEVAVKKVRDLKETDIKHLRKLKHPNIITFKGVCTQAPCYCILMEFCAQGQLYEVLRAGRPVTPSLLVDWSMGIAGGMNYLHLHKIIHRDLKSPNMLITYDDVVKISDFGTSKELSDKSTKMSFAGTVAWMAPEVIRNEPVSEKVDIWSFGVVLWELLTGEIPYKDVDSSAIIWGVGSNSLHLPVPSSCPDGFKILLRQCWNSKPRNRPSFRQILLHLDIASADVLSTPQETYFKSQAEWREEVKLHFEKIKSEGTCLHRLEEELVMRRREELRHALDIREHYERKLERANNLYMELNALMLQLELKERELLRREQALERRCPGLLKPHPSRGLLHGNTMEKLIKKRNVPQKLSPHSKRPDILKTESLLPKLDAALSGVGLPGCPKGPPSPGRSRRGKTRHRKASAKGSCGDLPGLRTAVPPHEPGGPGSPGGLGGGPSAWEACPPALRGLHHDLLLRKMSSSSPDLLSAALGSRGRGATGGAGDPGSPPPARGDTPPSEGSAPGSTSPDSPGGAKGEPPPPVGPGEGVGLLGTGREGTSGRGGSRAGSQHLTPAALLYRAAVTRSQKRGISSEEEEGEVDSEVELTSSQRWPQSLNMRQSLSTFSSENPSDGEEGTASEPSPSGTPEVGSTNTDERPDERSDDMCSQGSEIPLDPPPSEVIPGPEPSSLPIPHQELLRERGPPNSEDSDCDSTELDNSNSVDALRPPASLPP

Tyrosine-protein kinase Lck, sequence (P06239 2-509 limits assumed): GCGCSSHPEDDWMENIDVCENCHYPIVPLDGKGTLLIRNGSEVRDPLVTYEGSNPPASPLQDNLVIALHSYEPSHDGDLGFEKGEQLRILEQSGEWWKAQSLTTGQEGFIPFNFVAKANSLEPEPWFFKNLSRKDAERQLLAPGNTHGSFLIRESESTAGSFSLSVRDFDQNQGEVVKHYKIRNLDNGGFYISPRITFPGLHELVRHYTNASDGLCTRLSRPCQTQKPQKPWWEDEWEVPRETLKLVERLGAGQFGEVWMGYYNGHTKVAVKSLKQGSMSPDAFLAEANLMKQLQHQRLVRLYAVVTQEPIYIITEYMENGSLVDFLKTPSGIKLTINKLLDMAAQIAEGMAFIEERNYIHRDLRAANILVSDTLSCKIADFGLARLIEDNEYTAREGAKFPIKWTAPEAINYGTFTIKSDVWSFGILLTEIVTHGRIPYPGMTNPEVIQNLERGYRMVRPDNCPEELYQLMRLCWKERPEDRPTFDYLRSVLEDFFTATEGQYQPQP
Protein kinase C beta type, sequence (P05771 2-671 limits assumed): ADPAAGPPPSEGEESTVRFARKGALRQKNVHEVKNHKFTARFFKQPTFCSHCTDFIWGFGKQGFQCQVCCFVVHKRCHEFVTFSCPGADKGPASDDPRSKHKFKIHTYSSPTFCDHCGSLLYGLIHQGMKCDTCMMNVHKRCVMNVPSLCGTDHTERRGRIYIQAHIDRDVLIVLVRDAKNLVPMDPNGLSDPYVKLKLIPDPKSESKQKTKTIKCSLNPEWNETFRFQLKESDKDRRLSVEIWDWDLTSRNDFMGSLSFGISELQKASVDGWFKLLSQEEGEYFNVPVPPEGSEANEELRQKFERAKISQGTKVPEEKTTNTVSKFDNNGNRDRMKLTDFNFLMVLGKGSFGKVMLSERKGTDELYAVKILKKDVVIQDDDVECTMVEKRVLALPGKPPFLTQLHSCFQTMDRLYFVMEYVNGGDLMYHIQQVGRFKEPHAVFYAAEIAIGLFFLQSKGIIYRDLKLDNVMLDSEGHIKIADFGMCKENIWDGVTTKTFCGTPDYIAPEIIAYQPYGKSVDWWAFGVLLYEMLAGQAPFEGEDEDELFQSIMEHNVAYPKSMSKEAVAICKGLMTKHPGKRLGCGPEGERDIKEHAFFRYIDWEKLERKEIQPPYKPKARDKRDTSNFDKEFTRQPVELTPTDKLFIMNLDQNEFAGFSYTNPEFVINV
Serine/threonine-protein kinase MARK1 (Homo sapiens), sequence (Q9P0L2 whole entry, looked up): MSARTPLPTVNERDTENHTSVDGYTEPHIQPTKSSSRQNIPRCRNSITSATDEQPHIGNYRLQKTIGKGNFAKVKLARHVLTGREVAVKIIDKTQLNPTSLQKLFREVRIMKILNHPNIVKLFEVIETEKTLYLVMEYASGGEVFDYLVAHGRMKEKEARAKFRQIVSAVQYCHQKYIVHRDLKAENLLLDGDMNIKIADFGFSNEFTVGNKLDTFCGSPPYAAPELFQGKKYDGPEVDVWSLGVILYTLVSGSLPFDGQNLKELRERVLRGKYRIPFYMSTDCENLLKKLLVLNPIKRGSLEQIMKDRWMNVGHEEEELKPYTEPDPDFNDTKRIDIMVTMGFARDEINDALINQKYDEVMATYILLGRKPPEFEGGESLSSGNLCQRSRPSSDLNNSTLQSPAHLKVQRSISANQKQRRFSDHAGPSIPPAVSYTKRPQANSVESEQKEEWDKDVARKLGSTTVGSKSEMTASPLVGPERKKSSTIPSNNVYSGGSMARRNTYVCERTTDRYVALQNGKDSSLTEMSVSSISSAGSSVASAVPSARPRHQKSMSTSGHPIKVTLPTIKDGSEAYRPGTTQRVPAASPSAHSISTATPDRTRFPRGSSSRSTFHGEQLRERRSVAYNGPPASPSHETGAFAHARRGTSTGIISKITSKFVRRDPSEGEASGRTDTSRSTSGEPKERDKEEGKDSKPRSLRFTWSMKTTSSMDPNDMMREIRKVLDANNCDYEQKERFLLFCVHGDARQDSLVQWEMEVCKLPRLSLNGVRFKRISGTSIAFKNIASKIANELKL
Rho-associated protein kinase 2, sequence (O75116 whole entry): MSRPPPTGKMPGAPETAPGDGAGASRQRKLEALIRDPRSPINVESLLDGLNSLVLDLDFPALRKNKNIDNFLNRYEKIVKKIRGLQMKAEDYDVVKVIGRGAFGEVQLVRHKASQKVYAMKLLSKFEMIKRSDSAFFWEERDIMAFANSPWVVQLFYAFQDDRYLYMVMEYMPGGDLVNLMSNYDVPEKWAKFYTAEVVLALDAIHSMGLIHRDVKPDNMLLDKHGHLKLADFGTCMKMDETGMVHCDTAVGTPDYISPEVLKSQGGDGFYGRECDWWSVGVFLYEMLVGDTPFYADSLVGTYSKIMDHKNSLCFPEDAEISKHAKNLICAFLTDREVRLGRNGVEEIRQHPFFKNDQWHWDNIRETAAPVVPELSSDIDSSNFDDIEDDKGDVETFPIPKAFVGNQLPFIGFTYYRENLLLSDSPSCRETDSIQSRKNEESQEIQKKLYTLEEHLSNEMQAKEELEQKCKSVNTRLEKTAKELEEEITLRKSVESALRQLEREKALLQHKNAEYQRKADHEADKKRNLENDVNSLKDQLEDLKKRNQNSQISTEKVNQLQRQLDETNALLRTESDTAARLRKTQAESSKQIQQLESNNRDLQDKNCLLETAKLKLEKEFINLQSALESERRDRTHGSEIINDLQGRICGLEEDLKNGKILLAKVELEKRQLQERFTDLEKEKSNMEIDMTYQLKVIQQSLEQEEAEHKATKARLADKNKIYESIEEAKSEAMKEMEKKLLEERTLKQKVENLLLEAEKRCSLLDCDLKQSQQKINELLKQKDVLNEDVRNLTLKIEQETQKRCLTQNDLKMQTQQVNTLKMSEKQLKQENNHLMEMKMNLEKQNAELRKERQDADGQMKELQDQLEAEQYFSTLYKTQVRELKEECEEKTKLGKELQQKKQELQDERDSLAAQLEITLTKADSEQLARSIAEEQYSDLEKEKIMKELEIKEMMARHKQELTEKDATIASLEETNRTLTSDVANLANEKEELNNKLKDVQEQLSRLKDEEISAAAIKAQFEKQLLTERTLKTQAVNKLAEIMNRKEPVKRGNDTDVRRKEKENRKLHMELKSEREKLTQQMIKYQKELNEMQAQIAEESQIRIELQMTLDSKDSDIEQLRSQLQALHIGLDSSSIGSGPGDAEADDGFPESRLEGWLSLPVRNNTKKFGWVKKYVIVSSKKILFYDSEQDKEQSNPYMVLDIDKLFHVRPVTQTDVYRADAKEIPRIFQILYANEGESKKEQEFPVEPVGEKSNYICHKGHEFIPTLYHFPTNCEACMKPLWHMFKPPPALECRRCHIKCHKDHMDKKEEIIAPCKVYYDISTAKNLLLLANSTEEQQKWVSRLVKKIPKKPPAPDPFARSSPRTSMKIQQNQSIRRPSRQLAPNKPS
Activin receptor type-2A (Homo sapiens), sequence (P27037 whole entry): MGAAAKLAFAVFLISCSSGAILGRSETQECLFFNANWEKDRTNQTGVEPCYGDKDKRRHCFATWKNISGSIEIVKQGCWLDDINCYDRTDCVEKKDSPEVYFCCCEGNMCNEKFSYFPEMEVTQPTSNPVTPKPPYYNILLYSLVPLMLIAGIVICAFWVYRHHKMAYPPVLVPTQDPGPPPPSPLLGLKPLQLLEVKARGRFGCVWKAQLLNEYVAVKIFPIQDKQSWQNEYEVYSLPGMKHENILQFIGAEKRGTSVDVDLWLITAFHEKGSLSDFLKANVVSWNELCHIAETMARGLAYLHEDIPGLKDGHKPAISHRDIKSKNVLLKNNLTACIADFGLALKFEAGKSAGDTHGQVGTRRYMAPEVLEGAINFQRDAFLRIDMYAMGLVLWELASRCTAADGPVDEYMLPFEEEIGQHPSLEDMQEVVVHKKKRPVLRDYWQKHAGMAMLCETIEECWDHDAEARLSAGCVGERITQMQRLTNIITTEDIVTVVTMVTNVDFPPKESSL
NT-3 growth factor receptor, sequence (Q16288 32-839 limits assumed): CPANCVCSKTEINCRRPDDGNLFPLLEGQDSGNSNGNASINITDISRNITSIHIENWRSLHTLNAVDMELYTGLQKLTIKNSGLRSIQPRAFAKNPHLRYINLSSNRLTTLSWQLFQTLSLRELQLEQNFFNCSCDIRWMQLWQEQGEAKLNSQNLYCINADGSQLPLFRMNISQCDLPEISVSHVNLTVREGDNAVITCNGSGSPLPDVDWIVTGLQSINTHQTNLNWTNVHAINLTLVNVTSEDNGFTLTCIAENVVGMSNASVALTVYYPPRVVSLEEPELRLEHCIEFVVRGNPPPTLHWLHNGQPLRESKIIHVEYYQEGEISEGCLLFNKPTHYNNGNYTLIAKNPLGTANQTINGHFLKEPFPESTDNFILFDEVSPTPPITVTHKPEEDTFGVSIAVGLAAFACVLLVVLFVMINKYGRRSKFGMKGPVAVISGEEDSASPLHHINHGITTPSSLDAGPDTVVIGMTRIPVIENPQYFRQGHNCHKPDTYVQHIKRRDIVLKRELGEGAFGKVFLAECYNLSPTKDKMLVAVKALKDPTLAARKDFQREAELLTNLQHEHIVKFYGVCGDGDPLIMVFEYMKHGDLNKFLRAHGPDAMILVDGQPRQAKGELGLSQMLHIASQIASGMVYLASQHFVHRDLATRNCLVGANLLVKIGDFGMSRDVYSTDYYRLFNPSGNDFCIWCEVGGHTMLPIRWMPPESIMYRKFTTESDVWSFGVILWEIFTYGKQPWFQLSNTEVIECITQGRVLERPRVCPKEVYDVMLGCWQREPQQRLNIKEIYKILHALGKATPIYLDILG

Which % of engagement [1] does the source give for `C=CC(=O)Nc1ccc(C(=O)Nc2[nH]nc3c2CN(C(=O)N[C@H](CN(C)C)c2ccccc2)C3(C)C)cc1` here?
Its % of engagement is -7.7%.

How did the % of control [2] turn out when `Cc1cc(F)c(C(=O)Nc2cccc(-c3nncn3C(C)C)n2)cc1-n1cnc(C2CC2)c1` was run?
The % of control was 100%.

For `COc1cc(Nc2nc(C)cc(-c3cnn4nc(OC)ccc34)n2)cc(C(F)(F)F)c1`, which % of control [3] is on record?
The % of control was 98%.

Which % of inhibition [4] does the source give for `N#Cc1cccc(-c2c[nH]c3ncnc(N4CCOCC4)c23)c1` here?
Its % of inhibition is 57%.

With `CN1Cc2nccc(-c3cn(C)nc3-c3ccc(F)cc3)c2C1=O` as the compound, how does the IC50 [5] read?
Its IC50 is 10.2 µM.

`CNC(=O)Nc1ccc(-c2nc(N3CC4CCC(C3)O4)c3cnn(C4CCC5(CC4)OCCO5)c3n2)cc1` was tested. Which % of control [6] did it give?
The % of control was 93%.

With `CCN(CC)CCCCNc1ncc2cc(-c3cc(OC)cc(OC)c3)c(NC(=O)NC(C)(C)C)nc2n1` as the compound, how does the % of control [7] read?
Its % of control is 22%.

With `CCC(=O)N1CCN(c2ccc(-n3c(=O)ccc4cnc5ccc(-c6cnc7ccccc7c6)cc5c43)cc2C(F)(F)F)CC1` as the compound, how does the % of control [8] read?
Its % of control is 100%.

And the % of control [9]?
The % of control was 100%.
